Assay results as given in the supplement of paper PMC10307832.

Columns and labels:
Assay in all cases: relative viability (nuclei count vs DMSO), 5 days (fraction); higher = more cells survive
[1] = compound: O=S(=O)(c1ccccc1)N(CC(F)(F)F)c1ccc(C(O)(C(F)(F)F)C(F)(F)F)cc1 + O=C(c1cc(Cc2n[nH]c(=O)c3ccccc23)ccc1F)N1CCN(C(=O)C2CC2)CC1 [Olaparib] (partner 8 µM)
Procedure, shortened: (§1)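 For relative viability, nuclei counts in treated wells were divided by those in vehicle wells. Lung cancer cell lines had been pin-tool dosed in 1536-well plates the day after seeding and cultured for 5 days, then fixed and stained in one step (final 0.05% Triton X-100, 1% formaldehyde, 1 ug/ml Hoechst) and imaged at 4×. Doses were one drug alone or a fixed anchor-drug dose plus five library-drug doses (not always all listed) in √10 steps, and values are duplicate-plate medians.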

RO-3306 + Palbociclib = compound: C1=CC2=C(C=CC(=C2)C=C3C(=O)NC(=NCC4=CC=CS4)S3)N=C1 [RO-3306] + CC(=O)c1c(C)c2cnc(Nc3ccc(N4CCNCC4)cn3)nc2n(C2CCCC2)c1=O [Palbociclib] (partner 0.5 µM)
Procedure, shortened: as §1

[2] = compound: O=S(=O)(c1ccccc1)N(CC(F)(F)F)c1ccc(C(O)(C(F)(F)F)C(F)(F)F)cc1 + C[C@]1(O)C[C@@H](c2nc(-c3ccc4ccc(-c5ccccc5)nc4c3)c3c(N)nccn32)C1 [Linsitinib] (partner 1 µM)
Procedure, shortened: as §1

RO-3306 = compound: C1=CC2=C(C=CC(=C2)C=C3C(=O)NC(=NCC4=CC=CS4)S3)N=C1 [RO-3306]
Procedure, shortened: (§2)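 Lung cancer cell lines received five library-drug doses (not always all listed) spaced by √10, pinned on vehicle-anchored 1536-well plates after an overnight stay at 37 °C. Five days later, with no medium change, nuclei were Hoechst-stained, imaged at 4× and counted with MetaXpress. Viability is treated-well nuclei relative to vehicle-well nuclei, as a median across plates. Passing plates had control CV below 25% and at least one doubling.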

[3] = compound: O=S(=O)(c1ccccc1)N(CC(F)(F)F)c1ccc(C(O)(C(F)(F)F)C(F)(F)F)cc1
Procedure, shortened: as §2

Foretinib = compound: COc1cc2c(Oc3ccc(NC(=O)C4(C(=O)Nc5ccc(F)cc5)CC4)cc3F)ccnc2cc1OCCCN1CCOCC1 [Foretinib] (anchor plate); conditions: 0.25 µM
Procedure, shortened: as §2

With SW 1573 the relative viability ([1]; first compound 0.8 µM) was 0.527, the relative viability ([1]; first compound 2.53 µM) was 0.43 and the relative viability ([1]; first compound 8 µM) was 0.514. The relative viability (RO-3306 + Palbociclib; first compound 0.01 µM) was 0.445, the relative viability (RO-3306 + Palbociclib; first compound 0.03162 µM) was 0.399 and the relative viability (RO-3306 + Palbociclib; first compound 0.1 µM) was 0.377. It also gave a relative viability (RO-3306 + Palbociclib; first compound 0.3162 µM) of 0.316, a relative viability (RO-3306 + Palbociclib; first compound 1 µM) of 0.369 and a relative viability ([2]; first compound 0.8 µM) of 0.829. For the same cell line, the relative viability ([2]; first compound 2.53 µM) was 0.762, the relative viability ([2]; first compound 8 µM) was 0.624 and the relative viability (RO-3306; 0.01 µM) was 1.02. It also gave a relative viability (RO-3306; 0.03162 µM) of 0.781, a relative viability (RO-3306; 0.1 µM) of 0.945 and a relative viability (RO-3306; 0.3162 µM) of 1.05. The relative viability (RO-3306; 1 µM) was 0.979, the relative viability ([3]; 0.8 µM) was 1.17 and the relative viability ([3]; 2.53 µM) was 1.01. For the same cell line, the relative viability ([3]; 8 µM) was 0.884 and the relative viability (Foretinib) was 0.879.
